Laboratory results as given in patent publication US9427398B2, “Parenteral solutions containing metolazone” (Academic Pharmaceuticals Incorporated, priority 2008, dated 2016).

Legend:
Sprague-Dawley male rats = assay: Diuretic action of parenteral formulations, intraperitoneal administration in rats (24 h urine volume and Na+); type: in vivo, rat; conditions: for urine output: 24 h urine, n=6, mean±SD; for urine volume voided over 24 hours compared with placebo: intraperitoneal, furosemide 2, 4, 6 mg/kg (P≦0.01), metolazone 2 mg/kg in 2 different formulations
Protocol: Sprague-Dawley male rats (400 to 500 g) were used for the in vivo experiments. The rats were housed at a controlled temperature (22° C.), fed regularly and had free access to water. Rats were divided into 7 groups with 6 animals per group for the purposes of the study. The rats were deprived of food and water for 24 hours before beginning the study. After this fasting period, normal saline ([…]) was given by oral route. […] All rats were placed in metabolic cages for urine collection. Urine was collected for 24 hours after injection, and the volume measured and the (Na^+) concentration in urine were determined using an ion-specific electrode method, NOVA CRT (NOVA Biomedical, Waltham, Mass.) All data are presented as mean±SD of n observations. For statistical comparison, one-way analysis or variance ANOVA or Student t test was employed. A two-sided P value≦0.05 was considered significant.

[1] = cited from earlier work

Row | SMILES | urine output (Sprague-Dawley male rats; 2 mg/kg intraperitoneally) [mL/day] | urine output (Sprague-Dawley male rats; 4 mg/kg intraperitoneally) [mL/day] | urine output (Sprague-Dawley male rats; 6 mg/kg intraperitoneally) [mL/day] | urine volume voided over 24 hours compared with placebo (Sprague-Dawley male rats) | solubility in water [1]
1 | NS(=O)(=O)c1cc(C(=O)O)c(NCc2ccco2)cc1Cl [Furosemide, furosemide] | 9 ± 1 | 14 ± 2 | 17 ± 2 | significantly greater | –
2 | Cc1ccccc1N1C(=O)c2cc(S(N)(=O)=O)c(Cl)cc2NC1C (stereo not shown) [Metolazone, 7 chloro-1,2,3,4-tetrahydro-2-methyl-3-(-2-methylphenyl)-4-oxo-6-quinazoline sulfonamide] | 16 ± 3 | – | – | greater in each instance | sparingly soluble
